Assay results as given in ChEMBL document CHEMBL5505952, “Targeting SARS-CoV-2 entry processes: The promising potential and future of host-targeted small-molecule inhibitors” (Eur J Med Chem, 2024).

Tested on: SARS-CoV-2
Assay type: functional, organism-based
Conditions: Severe acute respiratory syndrome coronavirus 2, Vero C1008

CC(CN(C)C)CN1c2ccccc2Sc2ccccc21 (stereo unspecified) [METHYLPROMAZINE]
EC50: 2420 nM
